Patent US6407288B1, “Naphthylsalicylanilides as antimicrobial and antiinflammatory agents” (The Research Foundation of State University of New York, priority 2000, dated 2002)

Columns and labels:
Lact 7496 = assay: MIC microdilution, gram positive; type: cell-based, Lactobacillus rhamnosus (casei); details: Table 2, Gram Positive
Description: (§1) The MIC's for the compounds were determined by a modified microdilution tube dilution method described in “Methods for Dilution Antimicrobial Susceptibility Tests for Bacteria that Grow Aerobically” (National Committee for Clinical Laboratory Standards Approved Standards, 1997, NCCLS document M7-A4). In general the modifications were made because of the unique growth requirements for the fastidious oral organisms and for those bacteria that require anaerobic conditions. Reference is also made to “Methods for Antimicrobial Susceptibility of Anaerobic Bacteria” (National Committee for Clinical Laboratory Standards Approved Standards, 1997, NCCLS document M11-A4). Briefly, the methods were as follows. Cultures were grown for 18-24hrs (aerobic bacteria) or 48-72 hrs (anaerobic bacteria) in the appropriate medium. For aerobic bacteria full strength brain heart infusion medium (BHI, Difco) was used. For anaerobic bacteria, half strength BHI (18.5 g/L) was supplemented by adding yeast extract (10 g/L), hemin (0.29 mL of a stock solution containing 0.1 g/200 mL dH2O) and menadione (15 mL of a stock solution containing 0.15 mL in 30 mL 95% EtOH) was used. Initial cultures were diluted to approximately 1×10^8 CFU/mL for use as an inoculum. Each assay received 10 μL of the inoculum. The drugs were prepared from a stock solution contained in dimethyl sulfoxide (DMSO) and diluted into the culture medium. Final concentrations of the drugs ranged from 50 to 0.05 μg/assay. The tests were run in duplicate and were incubated appropriately with regard to oxygen requirements for 24 to 48 hrs as required. Anaerobic incubation was an atmosphere of 5% CO2, 10% H2, with the balance N2. The lowest concentration of an antimicrobial agent at which no visible growth is noted was referred to as the MIC.

S.salivarius = assay: MIC microdilution, gram positive; type: cell-based, Streptococcus salivarius; details: Table 1, Gram Positive
Description: as §1

M. luteus = assay: MIC microdilution, gram positive; type: cell-based, Micrococcus luteus; details: Table 2, Gram Positive
Description: as §1

P. acnes 11828 = assay: MIC microdilution, gram positive; type: cell-based, Propionibacterium acnes; details: Table 1, Gram Positive
Description: as §1

P. acnes 6922 = assay: MIC microdilution, gram positive; type: cell-based, Propionibacterium acnes; details: Table 1, Gram Positive
Description: as §1

P. ging 381 = assay: MIC microdilution, gram negative; type: cell-based, Porphyromonas gingivalis
Description: (§2) The MIC's for the compounds were determined by a modified microdilution tube dilution method described in “Methods for Dilution Antimicrobial Susceptibility Tests for Bacteria that Grow Aerobically” (National Committee for Clinical Laboratory Standards Approved Standards, 1997, NCCLS document M7-A4). In general the modifications were made because of the unique growth requirements for the fastidious oral organisms and for those bacteria that require anaerobic conditions. Reference is also made to “Methods for Antimicrobial Susceptibility of Anaerobic Bacteria” (National Committee for Clinical Laboratory Standards Approved Standards, 1997, NCCLS document M11-A4). Briefly, the methods were as follows. Cultures were grown for 18-24hrs (aerobic bacteria) or 48-72 hrs (anaerobic bacteria) in the appropriate medium. For aerobic bacteria full strength brain heart infusion medium (BHI, Difco) was used. For anaerobic bacteria, half strength BHI (18.5 g/L) was supplemented by adding yeast extract (10 g/L), hemin (0.29 mL of a stock solution containing 0.1 g/200 mL dH2O) and menadione (15 mL of a stock solution containing 0.15 mL in 30 mL 95% EtOH) was used. Initial cultures were diluted to approximately 1×10^8 CFU/mL for use as an inoculum. Each assay received 10 μL of the inoculum. The drugs were prepared from a stock solution contained in dimethyl sulfoxide (DMSO) and diluted into the culture medium. Final concentrations of the drugs ranged from 50 to 0.05 μg/assay. The tests were run in duplicate and were incubated appropriately with regard to oxygen requirements for 24 to 48 hrs as required. Anaerobic incubation was an atmosphere of 5% CO2, 10% H2, with the balance N2. The lowest concentration of an antimicrobial agent at which no visible growth is noted was referred to as the MIC. […] The method used was the same as described in Example 1.

Pg 53977 = assay: MIC microdilution, gram negative; type: cell-based, Porphyromonas gingivalis
Description: as §2

A. viscosus = assay: MIC microdilution, gram positive; type: cell-based, Actinomyces viscosus; details: Table 2, Gram Positive
Description: as §1

S. aureus = assay: MIC microdilution, gram positive; type: cell-based, Staphlococcus aureus
Description: (§3) The MIC's for the compounds were determined by a modified microdilution tube dilution method described in “Methods for Dilution Antimicrobial Susceptibility Tests for Bacteria that Grow Aerobically” (National Committee for Clinical Laboratory Standards Approved Standards, 1997, NCCLS document M7-A4). In general the modifications were made because of the unique growth requirements for the fastidious oral organisms and for those bacteria that require anaerobic conditions. Reference is also made to “Methods for Antimicrobial Susceptibility of Anaerobic Bacteria” (National Committee for Clinical Laboratory Standards Approved Standards, 1997, NCCLS document M11-A4).
(§4) Briefly, the methods were as follows. Cultures were grown for 18-24hrs (aerobic bacteria) or 48-72 hrs (anaerobic bacteria) in the appropriate medium. For aerobic bacteria full strength brain heart infusion medium (BHI, Difco) was used. For anaerobic bacteria, half strength BHI (18.5 g/L) was supplemented by adding yeast extract (10 g/L), hemin (0.29 mL of a stock solution containing 0.1 g/200 mL dH2O) and menadione (15 mL of a stock solution containing 0.15 mL in 30 mL 95% EtOH) was used. Initial cultures were diluted to approximately 1×10^8 CFU/mL for use as an inoculum. Each assay received 10 μL of the inoculum. The drugs were prepared from a stock solution contained in dimethyl sulfoxide (DMSO) and diluted into the culture medium. Final concentrations of the drugs ranged from 50 to 0.05 μg/assay. The tests were run in duplicate and were incubated appropriately with regard to oxygen requirements for 24 to 48 hrs as required. Anaerobic incubation was an atmosphere of 5% CO2, 10% H2, with the balance N2. The lowest concentration of an antimicrobial agent at which no visible growth is noted was referred to as the MIC.
(§5) This embodiment describes the sensitivity of various staphylococcus strains to the compounds of the present invention. The staphylococcus species R is a strain 00-045-1209 from the Children's Hospital in Buffalo. It was isolated from the peritoneal cavity (fluid culture) of an individual. It was coagulase negative. The sensitivity of this strain was tested agaisnt several known antibiotics.

S. species R = assay: Staphylococcus MIC; type: cell-based, staphylococcus species R; details: second Table 5 (Example 5); strain 00-045-1209
Description: as §3, §4, §5

Aa Y4 = assay: MIC microdilution, gram negative; type: cell-based, Actinobacillus actinomycetemcomitans
Description: as §2

S. mutans = assay: MIC microdilution, gram positive; type: cell-based, Streptococcus mutans; details: Table 1, Gram Positive
Description: as §1

Fuso. 25586 = assay: MIC microdilution, gram negative; type: cell-based, Fusobacterium nucleatum
Description: as §2

Str. pn. R = assay: Mean Streptococcus MIC; type: cell-based; details: Table 5, mean; strain resistant to penicillin and erythromycin
Description: as §3, §4
(§6) This embodiment illustrates the efficacy of the compounds of the present invention against Streptococcus strains. One of the strains, Str.pn.R was obtained from the Children's Hospital in Buffalo (strain 00-041-0614). […] The sensitivity of this strain was tested against several known antibiotics.

Str. pyo = assay: Mean Streptococcus MIC; type: cell-based; details: Table 5, mean
Description: as §3, §4, §6

Str. pn = assay: Mean Streptococcus MIC; type: cell-based; details: Table 5, mean
Description: as §3, §4, §6

S. sanguis = assay: MIC microdilution, gram positive; type: cell-based, Streptococcus sanguis; details: Table 1, Gram Positive
Description: as §1

B. fragilis = assay: MIC microdilution, gram negative; type: cell-based, Bacteroides fraglis
Description: as §2

[1] = Table 3 printed a second time, Gram Negative

N#Cc1cccc(NC(=O)c2cc(C(=O)c3ccc4ccccc4c3)ccc2O)c1 [NA2mC]
MIC Lact 7496 (Lact 7496): 12.5 micrograms/ml
MIC S.salivarius (S.salivarius): 50 micrograms/ml
MIC M. luteus (M. luteus): 3.1 micrograms/ml
MIC P. acnes 11828 (P. acnes 11828): 12.5 micrograms/ml
MIC P. acnes 6922 (P. acnes 6922): 6.3 micrograms/ml
MIC P. ging 381 (P. ging 381; Table 3, Gram Negative): 0.8 micrograms/ml
MIC P. ging 381 (P. ging 381; [1]): 0.8 micrograms/ml
MIC Pg 53977 (Pg 53977; Table 3, Gram Negative): 0.8 micrograms/ml
MIC Pg 53977 (Pg 53977; [1]): 0.8 micrograms/ml
MIC A. viscosus (A. viscosus): 1.6 micrograms/ml
MIC S. aureus (S. aureus; Table 2, Gram Positive): NE (NE indicates that the drug was not effective at a concentration >50 micrograms/ml)
MIC S. aureus (S. aureus; second Table 5 (Example 5)): NE (NE indicates that the drug was not effective at a concentration >50 micrograms/ml)
MIC S. species R (S. species R): NE (NE indicates that the drug was not effective at a concentration >50 micrograms/ml)
MIC Aa Y4 (Aa Y4; Table 3, Gram Negative): NE (NE indicates that the drug was not effective at a concentration >50 micrograms/ml)
MIC Aa Y4 (Aa Y4; [1]): NE (NE indicates that the drug was not effective at a concentration >50 micrograms/ml)
MIC S. mutans (S. mutans): 6.3 micrograms/ml
MIC Fuso. 25586 (Fuso. 25586; Table 3, Gram Negative): NE (NE indicates that the drug was not effective at a concentration >50 micrograms/ml)
MIC Fuso. 25586 (Fuso. 25586; [1]): NE (NE indicates that the drug was not effective at a concentration >50 micrograms/ml)
Mean Streptococcus MIC values Str. pn. R (Str. pn. R): 6.25 micrograms/ml
Mean Streptococcus MIC values Str. pyo (Str. pyo): NE (NE indicates that the drug was not effective at a concentration >50 micrograms/ml)
Mean Streptococcus MIC values Str. pn (Str. pn): 0.91 micrograms/ml
MIC S. sanguis (S. sanguis): 6.3 micrograms/ml
MIC B. fragilis (B. fragilis; Table 3, Gram Negative): 3.1 micrograms/ml
MIC B. fragilis (B. fragilis; [1]): 3.1 micrograms/ml

CCCCCCCCCCCCS(=O)(=O)c1ccc(O)c(C(=O)Nc2cccc(C(F)(F)F)c2)c1 [TMF-12, reference compound]
MIC Lact 7496 (Lact 7496): 3.1 micrograms/ml
MIC S.salivarius (S.salivarius): NE (NE indicates that the drug was not effective at a concentration >50 micrograms/ml)
MIC M. luteus (M. luteus): 0.8 micrograms/ml
MIC P. acnes 11828 (P. acnes 11828): 0.2 micrograms/ml
MIC P. acnes 6922 (P. acnes 6922): 0.4 micrograms/ml
MIC P. ging 381 (P. ging 381; Table 3, Gram Negative): 0.4 micrograms/ml
MIC P. ging 381 (P. ging 381; [1]): 0.4 micrograms/ml
MIC Pg 53977 (Pg 53977; Table 3, Gram Negative): 0.4 micrograms/ml
MIC Pg 53977 (Pg 53977; [1]): 0.4 micrograms/ml
MIC A. viscosus (A. viscosus): 1.6 micrograms/ml
MIC S. aureus (S. aureus; Table 2, Gram Positive): NE (NE indicates that the drug was not effective at a concentration >50 micrograms/ml)
MIC S. aureus (S. aureus; second Table 5 (Example 5)): NE (NE indicates that the drug was not effective at a concentration >50 micrograms/ml)
MIC S. species R (S. species R): NE (NE indicates that the drug was not effective at a concentration >50 micrograms/ml)
MIC Aa Y4 (Aa Y4; Table 3, Gram Negative): NE (NE indicates that the drug was not effective at a concentration >50 micrograms/ml)
MIC Aa Y4 (Aa Y4; [1]): NE (NE indicates that the drug was not effective at a concentration >50 micrograms/ml)
MIC S. mutans (S. mutans): NE (NE indicates that the drug was not effective at a concentration >50 micrograms/ml)
MIC Fuso. 25586 (Fuso. 25586; Table 3, Gram Negative): NE (NE indicates that the drug was not effective at a concentration >50 micrograms/ml)
MIC Fuso. 25586 (Fuso. 25586; [1]): NE (NE indicates that the drug was not effective at a concentration >50 micrograms/ml)
Mean Streptococcus MIC values Str. pn. R (Str. pn. R): 0.78 micrograms/ml
Mean Streptococcus MIC values Str. pyo (Str. pyo): 0.47 micrograms/ml
Mean Streptococcus MIC values Str. pn (Str. pn): 0.65 micrograms/ml
MIC S. sanguis (S. sanguis): 12.5 micrograms/ml
MIC B. fragilis (B. fragilis; Table 3, Gram Negative): NE (NE indicates that the drug was not effective at a concentration >50 micrograms/ml)
MIC B. fragilis (B. fragilis; [1]): NE (NE indicates that the drug was not effective at a concentration >50 micrograms/ml)
